What was measured:
Assay type in all cases: in vivo
[1] = test system: blackgrass (Alopecurus myosuroides); assay: Test A postemergence application, visual injury rating 0-100; details: 10 days
Method in brief: (§1)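 Rating: visual, day 10, untreated plants as reference, 0 no effect to 100 full control. Plants were in loam-sand and were treated either preemergence via directed soil spray or postemergence at the one- to two-leaf stage.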

[2] = test system: galium (catchweed bedstraw, Galium aparine); assay: as above; details: 10 days
Method in brief: as §1

[3] = test system: soybean (Glycine max); assay: as above; details: 10 days
Method in brief: as §1

[4] = test system: wheat (Triticum aestivum); assay: as above; details: 10 days
Method in brief: as §1

[5] = test system: corn (Zea mays); assay: as above; details: 10 days
Method in brief: as §1

[6] = test system: ragweed (common ragweed, Ambrosia artemisiifolia); assay: as above; details: 10 days
Method in brief: as §1

[7] = test system: oat, wild (wild oat, Avena fatua); assay: as above; details: 10 days
Method in brief: as §1

[8] = test system: ryegrass, Italian (italian ryegrass, Lolium multiflorum); assay: as above; details: 10 days
Method in brief: as §1

[9] = test system: green foxtail (Setaria viridis); assay: as above; details: 10 days
Method in brief: as §1

[10] = test system: barnyardgrass (Echinochloa crus-galli); assay: as above; details: 10 days
Method in brief: as §1

[11] = test system: palmer (palmer amaranth, palmer pigweed, Amaranthus palmeri); assay: as above; details: 10 days
Method in brief: as §1

[12] = test system: horseweed (Erigeron canadensis); assay: as above; details: 10 days
Method in brief: as §1

[13] = test system: kochia (Bassia scoparia); assay: as above; details: 10 days
Method in brief: as §1

[14] = test system: rice (Oryza sativa); assay: Test B flooded paddy test, visual plant response rating 0-100; details: 250 g ai/ha, Flood, applied to paddy water, evaluated after 13 days
Method in brief: (§2)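 Visual scores versus untreated controls were recorded 13 days after treatment of greenhouse-held plants. At the 2-leaf stage, pots were flooded 3 cm above the soil surface and compounds added straight to the water.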

[15] = test system: ducksalad (Heteranthera limosa); assay: as above; details: 250 g ai/ha, Flood, applied to paddy water, evaluated after 13 days
Method in brief: as §2

[16] = test system: sedge, umbrella (small-flower umbrella sedge, Cyperus difformis); assay: as above; details: 250 g ai/ha, Flood, applied to paddy water, evaluated after 13 days
Method in brief: as §2

[17] = test system: barnyardgrass (Echinochloa crusgalli); assay: as above; details: 250 g ai/ha, Flood, applied to paddy water, evaluated after 13 days
Method in brief: as §2

[18] = test system: blackgrass (Alopecurus myosuroides); assay: Test A preemergence soil spray, visual injury rating 0-100; details: 10 days, 0 = no effect, 100 = complete control
Method in brief: as §1

[19] = test system: soybean (Glycine max); assay: as above; details: 10 days, 0 = no effect, 100 = complete control
Method in brief: as §1

[20] = test system: wheat (Triticum aestivum); assay: as above; details: 10 days, 0 = no effect, 100 = complete control
Method in brief: as §1

[21] = test system: corn (Zea mays); assay: as above; details: 10 days, 0 = no effect, 100 = complete control
Method in brief: as §1

[22] = test system: ragweed (common ragweed, Ambrosia artemisiifolia); assay: as above; details: 10 days, 0 = no effect, 100 = complete control
Method in brief: as §1

[23] = test system: oat, wild (wild oat, Avena fatua); assay: as above; details: 10 days, 0 = no effect, 100 = complete control
Method in brief: as §1

[24] = test system: ryegrass, Italian (italian ryegrass, Lolium multiflorum); assay: as above; details: 10 days, 0 = no effect, 100 = complete control
Method in brief: as §1

[25] = test system: green foxtail (Setaria viridis); assay: as above; details: 10 days, 0 = no effect, 100 = complete control
Method in brief: as §1

[26] = test system: barnyardgrass (Echinochloa crus-galli); assay: as above; details: 10 days, 0 = no effect, 100 = complete control
Method in brief: as §1

[27] = test system: palmer (palmer amaranth, palmer pigweed, Amaranthus palmeri); assay: as above; details: 10 days, 0 = no effect, 100 = complete control
Method in brief: as §1

[28] = test system: kochia (Bassia scoparia); assay: as above; details: 10 days, 0 = no effect, 100 = complete control
Method in brief: as §1

[29] = 31 g ai/ha, postemergence, 0 = no effect, 100 = complete control
[30] = Postemergence, 125 g ai/ha, 0 is no effect, 100 is complete control

SMILES: CC1(C(=O)NC2CC=C(C(=O)OCC(F)(F)F)C2)CN(c2cc(F)cc(F)c2)C(=O)O1 (single isomer, unassigned) [Compound 24]
- Blackgrass plant response rating (0-100) [1, 29]: 0
- Blackgrass plant response rating (0 to 100 scale) [1, 30]: 60
- Galium plant response rating (0-100) [2, 29]: 40
- Galium plant response rating (0 to 100 scale) [2, 30]: 80
- Soybean plant response rating (0-100) [3, 29]: 0
- Soybean plant response rating (0 to 100 scale) [3, 30]: 60
- Wheat plant response rating (0-100) [4, 29]: 30
- Wheat plant response rating (0 to 100 scale) [4, 30]: 90
- Corn plant response rating (0-100) [5, 29]: 10
- Corn plant response rating (0 to 100 scale) [5, 30]: 90
- Ragweed plant response rating (0-100) [6, 29]: 20
- Ragweed plant response rating (0 to 100 scale) [6, 30]: 30
- Oat, Wild plant response rating (0-100) [7, 29]: 10
- Oat, Wild plant response rating (0 to 100 scale) [7, 30]: 60
- Ryegrass, Italian plant response rating (0-100) [8, 29]: 40
- Ryegrass, Italian plant response rating (0 to 100 scale) [8, 30]: 60
- Foxtail, Green plant response rating (0-100) [9, 29]: 0
- Foxtail, Green plant response rating (0 to 100 scale) [9, 30]: 60
- Barnyardgrass plant response rating (0-100) [10, 29]: 20
- Barnyardgrass plant response rating (0 to 100 scale) [10, 30]: 80
- Amaranth, Palmer plant response rating (0-100) [11, 29]: 0
- Amaranth, Palmer / Pigweed, Palmer plant response rating (0 to 100 scale) [11, 30]: 40
- Horseweed plant response rating (0-100) [12, 29]: 20
- Horseweed plant response rating (0 to 100 scale) [12, 30]: 10
- Kochia plant response rating (0-100) [13, 29]: 20
- Kochia plant response rating (0 to 100 scale) [13, 30]: 90
- Plant response rating, Rice (0 to 100 scale, 0 is no effect and 100 is complete control) [14]: 0
- Plant response rating, Ducksalad (0 to 100 scale, 0 is no effect and 100 is complete control) [15]: 0
- Plant response rating, Sedge, Umbrella (0 to 100 scale, 0 is no effect and 100 is complete control) [16]: 0
- Plant response rating, Barnyardgrass (0 to 100 scale, 0 is no effect and 100 is complete control) [17]: 0
- Blackgrass plant response rating (0-100) ([18]; 31 g ai/ha): 0
- Blackgrass plant response rating (0 to 100 scale) ([18]; 125 g ai/ha): 0
- Soybean plant response rating (0-100) ([19]; 31 g ai/ha): 0
- Soybean plant response rating (0 to 100 scale) ([19]; 125 g ai/ha): 10
- Wheat plant response rating (0-100) ([20]; 31 g ai/ha): 0
- Wheat plant response rating (0 to 100 scale) ([20]; 125 g ai/ha): 70
- Corn plant response rating (0-100) ([21]; 31 g ai/ha): 0
- Corn plant response rating (0 to 100 scale) ([21]; 125 g ai/ha): 0
- Ragweed plant response rating (0-100) ([22]; 31 g ai/ha): 0
- Ragweed plant response rating (0 to 100 scale) ([22]; 125 g ai/ha): 10
- Oat, Wild plant response rating (0-100) ([23]; 31 g ai/ha): 0
- Oat, Wild plant response rating (0 to 100 scale) ([23]; 125 g ai/ha): 20
- Ryegrass, Italian plant response rating (0-100) ([24]; 31 g ai/ha): 0
- Ryegrass, Italian plant response rating (0 to 100 scale) ([24]; 125 g ai/ha): 0
- Foxtail, Green plant response rating (0-100) ([25]; 31 g ai/ha): 50
- Foxtail, Green plant response rating (0 to 100 scale) ([25]; 125 g ai/ha): 50
- Barnyardgrass plant response rating (0-100) ([26]; 31 g ai/ha): 10
- Barnyardgrass plant response rating (0 to 100 scale) ([26]; 125 g ai/ha): 10
- Amaranth, Palmer plant response rating (0-100) ([27]; 31 g ai/ha): 30
- Amaranth, Palmer plant response rating (0 to 100 scale) ([27]; 125 g ai/ha): 70
- Kochia plant response rating (0-100) ([28]; 31 g ai/ha): 0
- Kochia plant response rating (0 to 100 scale) ([28]; 125 g ai/ha): 0

From patent publication US20260285850A1, “SUBSTITUTED OXAZOLIDINONES AND IMIDAZOLINONES AS HERBICIDES” (FMC CORPORATION, priority 2023, published 2026)
